# Experiments:
# [1] = test system: PC-3 human prostate cancer cell line; test: cells; details: Homo sapiens, PC-3, 72 h
# Summary of the method: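 Cells seeded at 5,000/well, grown 24 h drug-free, then exposed to vehicle or test compounds for 72 h. Viability by MTT reduction (8 h, 37 °C), formazan dissolved in DMSO. Values given as percentage of control cell growth.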
# [2] = test system: PANC-1 human pancreatic carcinoma cell line; test: cells; details: Homo sapiens, PANC-1, 72 h
# Summary of the method: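 Cells seeded at 5,000/well, left 24 h drug-free, then exposed to test compounds for 72 h. Viability read by MTT reduction (MTT added for 8 h at 37° C, formazan dissolved in DMSO).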
# [3] = test system: H460 tumors; test: Human lung tumor xenografts (H460) in athymic nude mice, tumor volume % T/C
# [4] = test system: U87-MG human glioblastoma cell line; test: cells; details: Homo sapiens, U-87 MG, 72 h
# [5] = test system: HepG2 human hepatocellular liver carcinoma cell line; test: MTT cytotoxicity assay in HepG2 cells: IC50 of single agents and combinations with PM01183; assay type: cell-based; details: Homo sapiens, HepG2, 72 h
# [6] = test system: A549 human lung carcinoma cell line; test: MTT cytotoxicity assay in A549 cells: IC50 of single agents and combinations with PM01183; assay type: cell-based; details: Homo sapiens, A549, 72 h
# Summary of the method: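 A549 cells seeded at 5,000 per well, grown 24 h drug-free, then exposed to vehicle or compounds for 72 h, either singly or combined with PM01183. Combination responses plotted against dose ratio relative to an additivity line.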
# [7] = test system: HT-29 human colon adenocarcinoma cell line; test: cells; details: Homo sapiens, HT-29, 72 h
# Summary of the method: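 HT-29 cells (5,000/well) were attached for 24 h, then exposed to vehicle or compounds for 72 h. Viability was read by MTT reduction, with 8 h MTT at 37° C and formazan dissolved in DMSO. Values are % of control cell growth.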
smiles,measurement,setting,value
COc1ccc2[nH]c3c(c2c1)CCN[C@]31CS[C@@H]2c3c(OC(C)=O)c(C)c4c(c3[C@H](COC1=O)N1[C@@H]2[C@H]2c3c(cc(C)c(OC)c3O)C[C@@H]([C@@H]1O)N2C)OCO4 [PM01183],IC50,[1],2.6 nM
same,IC50,[2],2.8 nM
same,% T/C on day 0,[3]; PM01183 0.045 mg/kg,108.3%
same,% T/C on day 2,[3]; PM01183 0.045 mg/kg,78.7%
same,% T/C on day 5,[3]; PM01183 0.045 mg/kg,61.2%
same,% T/C on day 7,[3]; PM01183 0.045 mg/kg,67.2%
same,% T/C on day 9,[3]; PM01183 0.045 mg/kg,78.8%
same,% T/C on day 12,[3]; PM01183 0.045 mg/kg,87.9%
same,% T/C on day 0,[3]; PM01183 0.09 mg/kg,116.9%
same,% T/C on day 2,[3]; PM01183 0.09 mg/kg,83.1%
same,% T/C on day 5,[3]; PM01183 0.09 mg/kg,83.9%
same,% T/C on day 7,[3]; PM01183 0.09 mg/kg,76.9%
same,% T/C on day 9,[3]; PM01183 0.09 mg/kg,80.6%
same,% T/C on day 12,[3]; PM01183 0.09 mg/kg,84.9%
same,% T/C on day 0,[3]; PM01183 0.135 mg/kg,117.6%
same,% T/C on day 2,[3]; PM01183 0.135 mg/kg,77.4%
same,% T/C on day 5,[3]; PM01183 0.135 mg/kg,67.5%
same,% T/C on day 7,[3]; PM01183 0.135 mg/kg,71.7%
same,% T/C on day 9,[3]; PM01183 0.135 mg/kg,66.7%
same,% T/C on day 12,[3]; PM01183 0.135 mg/kg,52.9%
same,% T/C on day 0,[3]; PM01183 0.18 mg/kg,114.4%
same,% T/C on day 2,[3]; PM01183 0.18 mg/kg,79.6%
same,% T/C on day 5,[3]; PM01183 0.18 mg/kg,74.7%
same,% T/C on day 7,[3]; PM01183 0.18 mg/kg,75.0%
same,% T/C on day 9,[3]; PM01183 0.18 mg/kg,69.1%
same,% T/C on day 12,[3]; PM01183 0.18 mg/kg,64.9%
same,IC50,[4],4.5 nM
same,IC50,[5],2.5 nM
same,IC50,[6],3.6 nM
same,IC50,[7],3.7 nM

# Source: patent US11590129B2, “Combination therapy with an antitumor alkaloid” (PHARMA MAR, S.A., priority 2010, dated 2023)
